According to US20070117770A1, “Human ribosomal DNA (rDNA) and ribosomal RNA (rRNA) nucleic acids and uses thereof” (Cylene Pharmaceuticals, Inc., priority 2005, published 2007):

Experiments:
IRAK4(h) = IRAK4(h) (Homo sapiens, UniProt Q9NWZ3); test: Protein kinase inhibition assay; type: biochemical; conditions: read-out: percent residual activity of IRAK4(h)
Method: (§1) Certain compounds were tested for activity in protein kinase inhibition assays. All substrates were dissolved and diluted to working stocks in de-ionized water, apart from histone H1 (10× working stock in 20 mM MOPS pH 7.0), PDKtide (10× working stock in 50 mM Tris pH 7.0) ATF2 (which is typically stored at a 20× working stock in 50 mM Tris pH 7.5, 150 mM NaCl, 0.1 mM EGTA, 0.03% Brij-35, 50% glycerol, 1 mM benzamidine, 0.2 mM PMSF and 0.1% R-mercaptoethanol), KKLNRTLSFAEPG (SEQ ID NO:203) and RRRLSFAEPG (SEQ ID NO:204) (50 mM HEPES pH 7.4) and GGEEEEYFELVKKKK (SEQ ID NO:205) (20 mM MOPS pH 7.0). All kinases were pre-diluted to a 10× working concentration prior to addition into the assay. The composition of the dilution buffer for each kinase is detailed below.
(§2) In a final reaction volume of 25 μl, IRAK4 (h) (5-10 mU) is incubated with 8 mM MOPS pH 7.0, 0.2 mM EDTA, 0.33 mg/ml myelin basic protein, 10 mM MgAcetate and [gamma-33P-ATP] (specific activity approx. 500 cpm/pmol, concentration as required). The reaction is initiated by the addition of the MgATP mix. After incubation for 40 minutes at room temperature, the reaction is stopped by the addition of 5 μl of a 3% phosphoric acid solution. 10 μl of the reaction is then spotted onto a P30 filtermat and washed three times for 5 minutes in 75 mM phosphoric acid and once in methanol prior to drying and scintillation counting.

Lyn(h) = Lyn(h) (Homo sapiens, UniProt P07948); test: Protein kinase inhibition assay; type: biochemical; conditions: read-out: percent residual activity of Lyn(h)
Sequence of Lyn(h) (P07948 whole entry): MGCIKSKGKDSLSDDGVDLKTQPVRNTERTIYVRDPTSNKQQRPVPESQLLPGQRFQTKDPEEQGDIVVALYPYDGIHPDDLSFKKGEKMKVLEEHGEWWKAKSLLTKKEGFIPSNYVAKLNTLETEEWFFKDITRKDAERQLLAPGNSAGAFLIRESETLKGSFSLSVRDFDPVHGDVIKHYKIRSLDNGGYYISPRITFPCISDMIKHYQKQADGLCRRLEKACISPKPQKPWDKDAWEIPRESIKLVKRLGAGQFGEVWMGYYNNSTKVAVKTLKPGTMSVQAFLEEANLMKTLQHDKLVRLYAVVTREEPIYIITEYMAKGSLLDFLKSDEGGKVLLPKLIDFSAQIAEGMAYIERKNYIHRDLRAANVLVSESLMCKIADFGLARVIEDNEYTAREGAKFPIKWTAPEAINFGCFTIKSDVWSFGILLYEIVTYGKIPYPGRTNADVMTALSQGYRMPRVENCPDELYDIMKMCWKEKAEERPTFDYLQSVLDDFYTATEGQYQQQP
Method: as §1
(§3) In a final reaction volume of 25 μl, Lyn (h) (5-10 mU) is incubated with 50 mM Tris pH 7.5, 0.1 mM EGTA, 0.1 mM Na3VO4, 0.1% R-mercaptoethanol, 0.1 mg/ml poly(Glu, Tyr) 4:1, 10 mM MgAcetate and [gamma-33P-ATP] (specific activity approx. 500 cpm/pmol, concentration as required). The reaction is initiated by the addition of the MgATP mix. After incubation for 40 minutes at room temperature, the reaction is stopped by the addition of 5 μl of a 3% phosphoric acid solution. […]

PDK1(h) = PDK1(h) (Homo sapiens, UniProt O15530); test: Protein kinase inhibition assay; type: biochemical; conditions: read-out: percent residual activity of PDK1(h)
Sequence of PDK1(h) (O15530 whole entry): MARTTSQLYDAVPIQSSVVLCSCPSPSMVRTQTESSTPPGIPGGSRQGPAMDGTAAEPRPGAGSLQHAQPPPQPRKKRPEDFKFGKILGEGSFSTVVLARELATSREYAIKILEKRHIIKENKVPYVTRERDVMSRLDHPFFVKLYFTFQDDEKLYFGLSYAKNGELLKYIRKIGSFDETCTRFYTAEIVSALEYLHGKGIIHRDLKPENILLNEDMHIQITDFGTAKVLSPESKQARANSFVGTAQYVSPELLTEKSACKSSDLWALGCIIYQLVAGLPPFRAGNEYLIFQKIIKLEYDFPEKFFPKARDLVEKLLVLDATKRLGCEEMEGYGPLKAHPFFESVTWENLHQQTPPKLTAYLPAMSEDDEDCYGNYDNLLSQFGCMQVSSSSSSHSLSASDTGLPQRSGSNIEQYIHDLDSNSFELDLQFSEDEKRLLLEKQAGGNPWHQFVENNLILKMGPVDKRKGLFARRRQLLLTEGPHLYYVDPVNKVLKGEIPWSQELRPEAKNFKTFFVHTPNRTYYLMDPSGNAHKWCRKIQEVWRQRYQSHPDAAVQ
Method: as §1
as §3, with “PDK1” for “Lyn”, “100 μM […] (SEQ ID NO:217) (PDKtide),” for “0.1 mM EGTA, 0.1 mM Na3VO4,”, “R-mercaptoethanol,” for “R-mercaptoethanol, 0.1 mg/ml poly(Glu, Tyr) 4:1,”

PKCζ(h) = PKCζ(h) (Homo sapiens, UniProt Q05513); test: Protein kinase inhibition assay; type: biochemical; conditions: read-out: percent residual activity of PKCζ(h)
Sequence of PKCζ(h) (Q05513 whole entry): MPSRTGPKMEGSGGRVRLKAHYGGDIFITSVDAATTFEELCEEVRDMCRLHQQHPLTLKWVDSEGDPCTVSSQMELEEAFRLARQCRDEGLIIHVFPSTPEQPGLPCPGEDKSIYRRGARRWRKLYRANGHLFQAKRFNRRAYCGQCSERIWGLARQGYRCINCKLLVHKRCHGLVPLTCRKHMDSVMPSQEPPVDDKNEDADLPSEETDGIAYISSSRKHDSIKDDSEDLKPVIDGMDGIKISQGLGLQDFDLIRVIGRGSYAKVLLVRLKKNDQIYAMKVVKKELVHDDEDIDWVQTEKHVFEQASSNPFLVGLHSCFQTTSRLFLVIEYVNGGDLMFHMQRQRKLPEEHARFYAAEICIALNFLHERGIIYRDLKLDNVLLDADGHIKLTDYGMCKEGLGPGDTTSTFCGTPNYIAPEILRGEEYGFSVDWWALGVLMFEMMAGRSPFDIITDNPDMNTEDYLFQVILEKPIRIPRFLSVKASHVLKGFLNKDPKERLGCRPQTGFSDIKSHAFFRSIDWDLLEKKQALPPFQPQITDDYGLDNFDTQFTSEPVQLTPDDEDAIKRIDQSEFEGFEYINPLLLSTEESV
Method: as §1
as §2, with “PKCξ” for “IRAK4”, “50 μM ERMRPRKRQGSVRRRV (SEQ ID NO:224),” for “0.33 mg/ml myelin basic protein,”

[1] = test system: fibrillarin in A549 cells; test: Cell fibrillarin localization (immunofluorescence); type: cell-based; conditions: protocol as for nucleolin
Method: An assay was conducted to determine the effect of ribosomal nucleic acid interacting compounds on cell nucleolin location. In these studies, A549 cells were plated in borosilicate chamber slides. The cells were treated with 10 uM compound A-1 the next day for two hours, washed with phosphate buffered saline, fixed for 10 minutes in 4% paraformaldehyde, permeabilized for 5 minutes in a 1:1 ethanol:acetone mix, incubated with a 1:100 dilution of an anti-nucleolin monoclonal antibody (catalog no. RDI-NUCLEOLabm; Research Diagnostics, Inc.) in 5% donkey serum, followed by incubation with a 1:100 diluted TRITC-labeled secondary anti-mouse antibody and observed under a fluorescence microscope (e.g., Olympus) in the TRITC channel at 600× magnification. […] Accordingly, nucleolin was redistributed from the nucleolus to the nucleoplasm in cells treated with a compound tested in the assay.
Another assay was conducted to determine the effect of ribosomal nucleic acid interacting compounds on cell fibrillarin location. These studies were conducted using a protocol similar to that described in the preceding paragraph, except an antibody that specifically bound to fibrillarin (catalog no. ab5821; Novus Biologicals, Inc.) was utilized.

cells = test: Cell cycle progression (propidium iodide, flow cytometry); type: cell-based; conditions: various concentrations, varying amounts of time
Method: (§4) In assays for determining cell cycle progression effects, cells were harvested and single cell suspensions were prepared in buffer (e.g. PBS +2% FBS; PBS+0.1% BSA). Cells were washed twice and resuspend at 1-2×10^6 cells/ml. One ml cells was aliquotted in a 15 ml polypropylene, V-bottomed tube and 3 ml cold absolute ethanol was added. Cells were fixed for at least one hour at 4° C. Fixed cells were washed twice in PBS and one ml of propidium iodide staining solution (3.8 mM sodium citrate, 50 ug/ml propidium iodide in PBS) was added to each cell pellet and mixed well. Fifty microliters of an RNase A stock solution ([…] RNase A boiled for 5 minutes and aliquoted and stored frozen at −20° C.) was added and the resulting mixture was incubated for 3 hours at 4° C. Samples were stored at 4° C. until analyzed by flow cytometry.

[2] = test system: DAOY medulloblastoma cells (p53−); test: as above; type: cell-based
Method: as §4

[3] = test system: HCT-116 colon carcinoma cells (p53+); test: as above; type: cell-based; conditions: HCT-116 (p53+)
Method: as §4

MiaPaCa pancreatic cells = test: as above; type: cell-based
Method: as §4

Sequence of IRAK4(h) (Q9NWZ3 whole entry): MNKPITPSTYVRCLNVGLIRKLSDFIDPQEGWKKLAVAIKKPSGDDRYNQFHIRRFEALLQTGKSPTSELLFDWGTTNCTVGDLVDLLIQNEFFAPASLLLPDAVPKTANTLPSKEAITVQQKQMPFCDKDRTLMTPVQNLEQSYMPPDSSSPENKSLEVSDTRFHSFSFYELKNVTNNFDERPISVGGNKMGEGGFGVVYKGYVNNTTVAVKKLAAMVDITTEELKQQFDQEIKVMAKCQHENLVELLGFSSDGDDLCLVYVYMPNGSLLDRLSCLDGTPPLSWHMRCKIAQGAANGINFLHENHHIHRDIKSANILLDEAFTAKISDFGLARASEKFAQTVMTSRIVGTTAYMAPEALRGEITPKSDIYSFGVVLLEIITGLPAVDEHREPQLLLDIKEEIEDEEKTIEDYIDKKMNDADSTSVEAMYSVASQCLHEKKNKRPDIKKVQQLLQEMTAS

remaining activity at 2.5 µM (IRAK4(h)) | remaining activity at 2.5 µM (Lyn(h)) | remaining activity at 2.5 µM (PDK1(h)) | remaining activity at 2.5 µM (PKCζ(h)) | Structure (SMILES) | fibrillarin localization in treated cells [1] | effect on the cell cycle (cells) | cell cycle arrest [2] | cell cycle arrest [3] | cell cycle arrest (MiaPaCa pancreatic cells)
98% | 110% | 121% | 56% | CN1CCCC1CCNC(=O)c1cn2c3c(c(N4CCC(c5cnccn5)C4)c(F)cc3c1=O)Oc1cc3ccccc3cc1-2 (stereo not shown) [Compound A-1] | caused redistribution of fibrillarin | little or no affect on the cell cycle | – | – | –
107% | 122% | 109% | 113% | CC(=O)N1CCN(c2ccc3c(=O)c(C(=O)NCCN4CCCC4)c4n(C)c5ccccc5n4c3n2)CC1 [Compound B-1] | – | – | arrested primarily in the S phase with some G2 arrest as well | arrested in G1 and G2 phases of the cell cycle | arrested primarily in the S phase with some G2 arrest as well
